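Interpolation was linear, between the two tested concentrations surrounding the appropriate level; five concentrations were tested over 48 hours in 96-well plates. Here, GI50 denotes the concentration required for 50% inhibition of growth.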 Activity calls are given as the source filed them. No stated cut-off is given here; in the data, active = GI50 up to about 1.1 µM and inactive = higher.
Tests used:
Assay in all cases: DTP human tumour cell line panel, 48 h
[1] = test system: SK-MEL-2
[2] = test system: MDA-MB-435
[3] = test system: MDA-N
[4] = test system: OVCAR-5
[5] = test system: MDA-MB-231
[6] = test system: BT-549
[7] = test system: DU-145
[8] = test system: 786-0
[9] = test system: U-251
[10] = test system: A498
[11] = test system: HCC 2998
[12] = test system: NCI-H23
[13] = test system: OVCAR-3
[14] = test system: NCI-H522
[15] = test system: HT-29
[16] = test system: HL-60
[17] = test system: HCT-15
[18] = test system: UACC-62
[19] = test system: OVCAR-8
[20] = test system: HOP-62

SMILES | GI50 [1] | GI50 [2] | GI50 [3] | GI50 [4] | GI50 [5] | GI50 [6] | GI50 [7] | GI50 [8] | GI50 [9] | GI50 [10] | GI50 [11] | GI50 [12] | GI50 [13] | GI50 [14] | GI50 [15] | GI50 [16] | GI50 [17] [µM] | GI50 [18] | GI50 [19] | GI50 [20]
COC(=O)NNC(c1ccc(Cl)cc1)c1ccc(Cl)cc1 | 12.4 µM (inactive) | 31.8 µM (inactive) | 22.3 µM (inactive) | 15.7 µM (inactive) | 12.2 µM (inactive) | 16.1 µM (inactive) | 31 µM (inactive) | 17.1 µM (inactive) | 19.5 µM (inactive) | 18.6 µM (inactive) | 13.5 µM (inactive) | 16.3 µM (inactive) | 15.2 µM (inactive) | 19.6 µM (inactive) | 16.5 µM (inactive) | 21 µM (inactive) | 15.2 | 16 µM (inactive) | 19.1 µM (inactive) | 
O=C(/N=S(/NC(=O)c1ccccc1)C(Cl)(Cl)Cl)c1ccccc1 (stereo not drawn) | 31.9 µM (inactive) | 17.7 µM (inactive) | 29.8 µM (inactive) | 22.9 µM (inactive) | 33.7 µM (inactive) | 12.7 µM (inactive) | 53.5 µM (inactive) | 28.1 µM (inactive) | 29.9 µM (inactive) | 27 µM (inactive) | 34.8 µM (inactive) | 12.4 µM (inactive) | 31.2 µM (inactive) | 30.3 µM (inactive) | 18.9 µM (inactive) | 4.89 µM (inactive) | 8.59 | 22.6 µM (inactive) | 15.5 µM (inactive) | 19.5 µM (inactive)
COc1nc2c(c(=O)n1C)N=C(c1ccccc1)[C@H](C(CC(=O)c1ccccc1)c1ccccc1)C(c1ccccc1)N2 (stereo partly drawn) | > 100 µM (inactive) | > 100 µM (inactive) | 35.8 µM (inactive) | > 100 µM (inactive) | 16.2 µM (inactive) | > 100 µM (inactive) | > 100 µM (inactive) | 76.4 µM (inactive) | > 100 µM (inactive) | > 100 µM (inactive) | 83.8 µM (inactive) | > 100 µM (inactive) | > 100 µM (inactive) | 25.9 µM (inactive) | 44.7 µM (inactive) | 38.4 µM (inactive) |  | > 100 µM (inactive) | 54.5 µM (inactive) | > 100 µM (inactive)

— ChEMBL document CHEMBL1201862, “PubChem BioAssay data set” (2004)
